This note sets out measurements from ChEMBL document CHEMBL1136060, “A new class of type I protein geranylgeranyltransferase (GGTase I) inhibitor” (Bioorg Med Chem Lett, 2002).

Where “and” joins values, the source holds several entries; their conditions need not be identical. Equal entries are not always repeated.

The target of one test is Geranylgeranyl transferase type I (Candida albicans). Briefly: Inhibition of Candida geranylgeranyl transferase I.
Consider `O=C(OC(CS)C(O)CS)c1csc(C2COc3ccccc3O2)n1` (configuration not stated), for which half-maximal inhibition (IC50) was put at 0.017 µM.

For the next test, the system named is Candida albicans. Kind of test: Antifungal activity against Candida albicans. It is filed as functional.
As to `O=C(OC(CS)C(O)CS)c1csc(C2COc3ccccc3O2)n1` (configuration not stated), the minimal inhibitory concentration (MIC) – broadly, the least concentration at which growth counts as inhibited – was above 120 µg/mL.

A further test addresses Protein farnesyltransferase (Homo sapiens, UniProt P49354+P49356). Kind of test: Inhibition of human farnesyl transferase. It is filed as protein-complex assay.
As to `O=C(OC(CS)C(O)CS)c1csc(C2COc3ccccc3O2)n1` (configuration not stated), the IC50 (usually the concentration needed to halve the response being measured) is above 1000 µM.

In a further test the target is Geranylgeranyl transferase type I (Candida albicans). Briefly: Inhibition of Candida geranylgeranyl transferase I […].
Turning to `O=C(OC(CS)C(O)CS)c1csc(C2COc3ccccc3O2)n1` (configuration not stated), 0.017 µM corresponded to half-maximal inhibition (IC50). Same read-out and setting: under `O=C(OCCS)c1csc(C2COc3ccccc3O2)n1` (configuration not stated) stands 1.3 µM; under `O=C(OCCCS)c1csc(C2COc3ccccc3O2)n1` (configuration not stated), 0.24 µM.

Another test concerns the target T1, Geranylgeranyl transferase type I (Homo sapiens, UniProt P49354+P53609). Briefly: Inhibition of human geranylgeranyl transferase I. The test is classed as protein-complex assay.
Compound `O=C(OC(CS)C(O)CS)c1csc(C2COc3ccccc3O2)n1` (configuration not stated) gave an IC50 of 40 µM.

The next test deals with T1, Geranylgeranyl transferase type I. Briefly: Tested for the selectivity against human geranylgeranyl transferase I. The test is classed as protein-complex assay.
In turn, `O=C(N[C@H](Cc1ccc(Cl)c(Cl)c1)C(=O)NCCc1c[nH]cn1)C1c2ccccc2Oc2ccccc21` yielded a Selectivity above 1000.

The next test relates to Geranylgeranyl transferase type I (Candida albicans). Kind of test: Tested for the inhibition of Candida GGTase I in Candida albicans at concentration of 3 uM.
Turning to `O=C(NC(C(=O)OCCCS)c1cccc2ccccc12)C1COc2ccccc2O1` (configuration not stated), the inhibition (in general, the share of the control response that was lost under treatment) was 89%. On the same count and under the same terms, under `NC(=O)[C@@H](Cc1c[nH]cn1)NC(=O)[C@@H](Cc1cccc2ccccc12)NC(=O)C1Cc2ccccc2C1` stands 48%. On the same count and under the same terms, the figure for `O=C(OCCCS)C(Cc1ccccc1)NC(=O)C1COc2ccccc2O1` (configuration not stated) is 55%; for `O=C(CNC(=O)C1Cc2ccccc2C1)OCCCS` it is below 10%.

For `NC(=O)[C@@H](Cc1c[nH]cn1)NC(=O)[C@@H](Cc1cccc2ccccc12)NC(=O)C1c2ccccc2-c2ccccc21`, the inhibition was 71% and 96%. The same measure, in the same setting: under `O=C(NC(CC1CCCCC1)C(=O)OCCCS)C1Cc2ccccc2C1` (configuration not stated) stands below 10%; under `O=C(NC(Cc1c[nH]c2ccccc12)C(=O)OCCCS)C1Cc2ccccc2C1` (configuration not stated), 72%.

Consider `CC(O)C(NC(=O)C1Cc2ccccc2C1)C(=O)OCCCS` (configuration not stated), for which the inhibition is below 10%. Same read-out and setting: under `CC(O)C(NC(=O)C1COc2ccccc2O1)C(=O)OCCCS` (configuration not stated) stands below 10%; under `NC(=O)[C@@H](Cc1c[nH]cn1)NC(=O)[C@@H](Cc1cccc2ccccc12)NC(=O)C1c2ccccc2Oc2ccccc21`, 97%.

The compound `O=C(OCCCS)C(Cc1ccc2ccccc2c1)NC(=O)C1COc2ccccc2O1` (configuration not stated) showed an inhibition of 25%. Still for that read-out and setting: under `O=C(OCCCS)C(CC1CCCCC1)NC(=O)C1COc2ccccc2O1` (configuration not stated) stands below 10%; under `O=C(NC(Cc1ccccc1)C(=O)OCCCS)C1Cc2ccccc2C1` (configuration not stated), 63%; under `O=C(O)CCC(NC(=O)C1Cc2ccccc2C1)C(=O)OCCCS` (configuration not stated), below 10%.

In turn, `O=C(OCCCS)C(Cc1c[nH]c2ccccc12)NC(=O)C1COc2ccccc2O1` (configuration not stated) gave an inhibition of 72%. Same read-out and setting: the figure for `O=C(NC(C(=O)OCCCS)c1cccc2ccccc12)C1Cc2ccccc2C1` (configuration not stated) is 90%; for `O=C(O)CCC(NC(=O)C1COc2ccccc2O1)C(=O)OCCCS` (configuration not stated) it is below 10%. Same read-out and setting: under `O=C(NC(Cc1ccc2ccccc2c1)C(=O)OCCCS)C1Cc2ccccc2C1` (configuration not stated) stands 36%; under `O=C(CNC(=O)C1COc2ccccc2O1)OCCCS` (configuration not stated), below 10%.

A further test addresses Geranylgeranyl transferase type I (Candida albicans). Kind of test: Tested for the inhibition of Candida GGTase I in Candida albicans.
Turning to `O=C(NCCCS)c1csc(C2COc3ccccc3O2)n1` (configuration not stated), it took 0.78 µM to reach half-maximal inhibition (IC50). Regarding `O=C(OCC(O)CS)c1csc(C2COc3ccccc3O2)n1` (configuration not stated), it took 0.031 µM to reach half-maximal inhibition (IC50). Same read-out and setting: under `O=C(N[C@H](Cc1ccc(Cl)c(Cl)c1)C(=O)NCCc1c[nH]cn1)C1c2ccccc2Oc2ccccc21` stands 0.01 µM; under `O=C(N[C@H](Cc1cccc2ccccc12)C(=O)OCCCS)C1Cc2ccccc2C1`, 0.0073 µM. Same read-out and setting: under `O=C(N[C@H](Cc1cccc2ccccc12)C(=O)NCCc1cnc[nH]1)C1Cc2ccccc2C1` stands 0.35 µM.
